According to patent US20020111356A1, “Arylalkylpyridazinones” (MERCK KGAA, priority 1995, published 2002):

In the case of `COc1ccc(C2=NN(Cc3ccc([N+](=O)[O-])cc3)C(=O)CC2)cc1OC` [Example 1, 2-(4-Nitrobenzyl)-6-(3,4-dimethoxyphenyl) -2,3,4,5-tetrahydropyridazin-3-one], the melting point was 126 °C.
